The nature of data set [1]: lipophilicity LogD7.4 (octanol/PBS). Type of data set: physicochemical. Conditions: experimental, octanol/PBS pH 7.4. The protocol:
Solubility of LIT-001 was determined from solution of about 1 mg of compound in 500 μl of PBS at pH 7.4. (Figs. 1, S1) The solution was stirred at room temperature for 24 h and centrifuged at 15.000 × g for 5 min. The supernatant was diluted with a mixture of acetonitrile and water and analyzed by HPLC with a diode detector (Gilson; Kinetex 2.6 μm C18 100 A 50 × 4.6 mm column). […] The lipophilicity (LogD7.4) of LIT-001 was measured using […] of a stock solution diluted with different concentrations of octanol and PBS to cover a LogP range from −2 to + 4.5 in a final volume of 1 ml. After stirring for 1 h at room temperature (≈ 20 °C), the samples were centrifuged and the different phases were analyzed by HPLC (Gilson; diode detector, Kinetex 2.6 μ C18 100 A 50 × 4.6 mm column).

Data set [2] can be described thus: stability in PBS solution over 24 h. Type of data set: physicochemical. Conditions: PBS pH 7.4, room temperature, after 24 h.
The subject of data set [3] is 24 off-target GPCRs. The experiment in a line: Eurofins SafetyScreen functional panel, GPCR agonist and antagonist profile. Conditions: 5 μM, 24 GPCRs. The class given is cell-based. The method, then:
(§1) In vitro profiling of LIT-001 was performed by Eurofins as described in the Eurofins SafetyScreen-Functional panel, 2018[31]. The hepatotoxicity of LIT-001 was studied with cryo-preserved mouse hepatocytes. After unfreezing (optiTHAW and optiINCUBATE media, Xenotech) and cell viability control, cells (2 × 10^6 cells/ml) were dispatched in 96 well microtiterplates. LIT-001 was added to reach a concentration 1 μM in the presence of 1 × 10^6 cells/mL in a volume of 100 μl/well. The incubation was stopped at 4, 20, 40, 80 and 120 min in adding 100 μl of acetonitrile at 0 °C. A positive control was treated in the same conditions. All samples were analyzed by UHPLC coupled to a mass spectrometer (Shimadzu LC-MS 8030).

The target of data set [4] is T1, dopamine transporter (Rattus norvegicus, UniProt P23977).
T1 construct: transporters from rat brain synaptosomes; tissue Eurofins (contract assay); host or cells: rat brain synaptosomes
T1 sequence (P23977 whole entry): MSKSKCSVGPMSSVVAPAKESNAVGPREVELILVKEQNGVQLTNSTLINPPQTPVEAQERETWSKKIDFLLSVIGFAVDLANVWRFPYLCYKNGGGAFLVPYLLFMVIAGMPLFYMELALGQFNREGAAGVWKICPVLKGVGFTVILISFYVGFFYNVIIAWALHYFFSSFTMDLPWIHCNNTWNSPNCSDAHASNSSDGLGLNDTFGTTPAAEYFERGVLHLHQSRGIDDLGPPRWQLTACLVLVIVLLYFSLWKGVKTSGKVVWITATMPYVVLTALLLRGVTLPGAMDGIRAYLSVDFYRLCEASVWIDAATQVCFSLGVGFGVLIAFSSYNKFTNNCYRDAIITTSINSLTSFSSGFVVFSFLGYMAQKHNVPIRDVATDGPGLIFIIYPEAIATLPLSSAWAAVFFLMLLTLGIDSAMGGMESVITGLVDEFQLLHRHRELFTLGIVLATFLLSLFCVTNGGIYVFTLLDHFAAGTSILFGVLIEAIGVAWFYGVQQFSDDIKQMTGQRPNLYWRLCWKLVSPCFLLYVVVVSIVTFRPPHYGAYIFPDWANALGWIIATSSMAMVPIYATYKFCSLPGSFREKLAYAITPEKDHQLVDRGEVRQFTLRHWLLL
The experiment in a line: uptake inhibition, rat brain synaptosomes. The class given is biochemical. Conditions: 5 μM. The protocol:
as §1

Data set [5] concerns the target T2, noradrenaline transporter (Rattus norvegicus, UniProt Q63380).
T2 construct: transporters from rat brain synaptosomes; tissue Eurofins (contract assay); host or cells: rat brain synaptosomes
Put plainly: uptake inhibition, rat brain synaptosomes. Conditions: 5 μM. Type of data set: biochemical. The protocol: as §1

Data set [6] addresses T3, serotonin transporter (Rattus norvegicus, UniProt P31652).
T3 construct: transporters from rat brain synaptosomes; tissue Eurofins (contract assay); host or cells: rat brain synaptosomes
The experiment in a line: uptake inhibition, rat brain synaptosomes. The class given is biochemical. The conditions noted are these: 5 μM. The method, then:
as §1

The target in data set [7] is T4, GABAA (alpha1/beta2/gamma2) (Homo sapiens, UniProt P14867+P18507+P47870).
T4 construct: Eurofins (contract assay)
T4 sequence (P14867 28-456): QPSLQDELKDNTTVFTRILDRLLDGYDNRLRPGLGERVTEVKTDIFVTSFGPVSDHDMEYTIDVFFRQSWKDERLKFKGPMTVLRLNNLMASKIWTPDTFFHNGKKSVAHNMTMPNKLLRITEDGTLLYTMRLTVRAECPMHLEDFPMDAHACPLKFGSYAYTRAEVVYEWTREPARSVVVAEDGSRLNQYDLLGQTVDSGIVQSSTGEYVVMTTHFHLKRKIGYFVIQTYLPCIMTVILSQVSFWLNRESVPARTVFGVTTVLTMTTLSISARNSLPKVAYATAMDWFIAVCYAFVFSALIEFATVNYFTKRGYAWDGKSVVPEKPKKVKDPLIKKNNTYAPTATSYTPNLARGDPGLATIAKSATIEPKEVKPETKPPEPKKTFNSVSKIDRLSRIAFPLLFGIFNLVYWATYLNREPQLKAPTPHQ
T4 sequence (P47870 25-512 limits assumed): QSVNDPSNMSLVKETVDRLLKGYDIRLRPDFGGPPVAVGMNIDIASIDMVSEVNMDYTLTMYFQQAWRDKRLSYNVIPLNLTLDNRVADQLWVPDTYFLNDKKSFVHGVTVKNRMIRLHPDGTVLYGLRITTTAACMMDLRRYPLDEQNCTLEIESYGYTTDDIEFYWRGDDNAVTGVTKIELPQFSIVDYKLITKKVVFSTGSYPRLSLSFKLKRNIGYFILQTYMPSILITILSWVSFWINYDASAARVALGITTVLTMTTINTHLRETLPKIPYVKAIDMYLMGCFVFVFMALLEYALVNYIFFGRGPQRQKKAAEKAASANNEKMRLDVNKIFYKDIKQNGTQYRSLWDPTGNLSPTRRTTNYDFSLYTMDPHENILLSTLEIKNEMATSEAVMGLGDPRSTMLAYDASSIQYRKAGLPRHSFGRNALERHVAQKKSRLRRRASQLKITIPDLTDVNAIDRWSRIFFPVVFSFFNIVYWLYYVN
T4 sequence (P18507 40-475): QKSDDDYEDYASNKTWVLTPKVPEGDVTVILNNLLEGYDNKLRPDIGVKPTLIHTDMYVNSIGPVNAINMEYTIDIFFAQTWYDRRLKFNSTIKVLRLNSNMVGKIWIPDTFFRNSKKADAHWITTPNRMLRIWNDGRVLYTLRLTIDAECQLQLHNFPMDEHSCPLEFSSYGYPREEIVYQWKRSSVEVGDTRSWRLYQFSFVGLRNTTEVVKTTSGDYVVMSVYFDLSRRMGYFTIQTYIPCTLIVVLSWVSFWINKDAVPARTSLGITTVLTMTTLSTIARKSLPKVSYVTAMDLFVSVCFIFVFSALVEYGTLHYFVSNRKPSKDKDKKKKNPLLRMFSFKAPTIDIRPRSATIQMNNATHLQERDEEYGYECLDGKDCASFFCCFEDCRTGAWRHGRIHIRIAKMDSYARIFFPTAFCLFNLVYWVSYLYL
The experiment in a line: ion channel blockade panel. Type of data set: cell-based. The conditions noted are these: 5 μM. The method, then:
as §1

Data set [8] concerns the target T5, Vav1.5 sodium channel (Homo sapiens, UniProt Q14524).
T5 construct: Eurofins (contract assay)
Put plainly: ion channel blockade panel. Type of data set: cell-based. Conditions: 5 μM. The protocol: as §1

In data set [9] the target is T6, human hERG potassium channel (Homo sapiens, UniProt Q12809).
T6 construct: Eurofins (contract assay)
T6 sequence (Q12809 whole entry): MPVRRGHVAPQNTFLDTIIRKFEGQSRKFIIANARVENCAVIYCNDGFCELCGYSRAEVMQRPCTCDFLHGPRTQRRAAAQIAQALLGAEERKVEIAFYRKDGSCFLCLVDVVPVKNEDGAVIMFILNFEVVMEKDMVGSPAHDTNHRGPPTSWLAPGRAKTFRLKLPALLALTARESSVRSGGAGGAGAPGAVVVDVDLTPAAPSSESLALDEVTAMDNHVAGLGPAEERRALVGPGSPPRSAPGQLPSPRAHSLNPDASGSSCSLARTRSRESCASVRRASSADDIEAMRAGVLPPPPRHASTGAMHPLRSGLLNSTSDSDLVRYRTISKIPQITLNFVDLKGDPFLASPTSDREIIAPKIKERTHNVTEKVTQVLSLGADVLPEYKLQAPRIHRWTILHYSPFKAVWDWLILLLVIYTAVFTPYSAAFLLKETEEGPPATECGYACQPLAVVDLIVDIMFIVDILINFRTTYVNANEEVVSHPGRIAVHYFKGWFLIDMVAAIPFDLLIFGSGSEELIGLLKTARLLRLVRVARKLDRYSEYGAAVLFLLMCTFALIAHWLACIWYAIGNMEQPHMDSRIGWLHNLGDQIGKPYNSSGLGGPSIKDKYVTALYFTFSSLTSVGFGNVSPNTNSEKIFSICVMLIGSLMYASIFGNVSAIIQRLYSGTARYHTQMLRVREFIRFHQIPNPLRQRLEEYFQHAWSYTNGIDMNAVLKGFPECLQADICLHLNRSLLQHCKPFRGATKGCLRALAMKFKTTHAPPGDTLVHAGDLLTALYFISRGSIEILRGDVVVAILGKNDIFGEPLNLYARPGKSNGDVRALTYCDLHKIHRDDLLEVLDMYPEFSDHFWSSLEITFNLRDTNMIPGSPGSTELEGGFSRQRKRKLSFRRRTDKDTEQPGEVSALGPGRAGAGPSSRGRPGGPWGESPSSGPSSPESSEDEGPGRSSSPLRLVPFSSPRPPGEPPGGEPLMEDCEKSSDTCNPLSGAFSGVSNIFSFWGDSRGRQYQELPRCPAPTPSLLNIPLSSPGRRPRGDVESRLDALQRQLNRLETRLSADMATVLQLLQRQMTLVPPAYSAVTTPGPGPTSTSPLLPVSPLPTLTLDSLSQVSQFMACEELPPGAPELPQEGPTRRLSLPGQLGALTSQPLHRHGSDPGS
The experiment in a line: ion channel blockade panel. Conditions: 5 μM. Type of data set: cell-based. The protocol:
as §1

Data set [10] addresses T7, nAChR (alpha4/beta2) (Homo sapiens, UniProt P17787+P43681).
T7 construct: Eurofins (contract assay)
The experiment in a line: ion channel blockade panel. Type of data set: cell-based. Conditions: 5 μM. The method, then:
as §1

Data set [11] in a line: stability in human hepatocytes. The class given is in vitro ADME. The protocol: Stability of LIT-001 was determined in human hepatocytes. Cells were unfrozen and their viability measured (Tryptan blue). Cells are suspended (2 × 10^6 cells/ml) and dispensed in 96 well microtiterplates (50 μl/well). LIT-001 (50 μl of a 2 μM in the incubation media) was added. The final concentration of the compound was 1 μM in 1 × 10^6 cells/ml. The incubation volume was 100 μl/well. Incubations were stopped after 0, 4, 20, 40, 80 and 120 min in mixing the well content with 100 μl acetonitrile at 0 °C. A positive control (testosterone) was prepared in same conditions. All samples were analyzed by LC-MS/MS (UHPLC coupled to a triple quadripole Shimadzu LC-MS 8030). Each measurement was performed in triplicate.

For data set [12], the system named is CFA-induced mechanical hyperalgesia. Put plainly: mechanical sensitivity, calibrated forceps, CFA model. The class given is in vivo. Conditions: rat. The protocol:
LIT-001 was prepared as described in Frantz et al.[20]. […] LIT-001 or vehicle were injected intraperitoneally (i.p.), in a volume of 10 ml/kg[20], 24 h after the induction of the CFA-induced painful inflammatory sensitization. To confirm the implication of the OTR we injected (i.p.) also L-368,899 (Sigma, St. Louis, MO) (1 mg/kg), an OTR antagonist, in combination with LIT-001 in another group of rats[11].
Male Wistar rats (300 g; JANVIER LABS, Le Genest St. Isle, France) were used for this study. They were housed by groups of 3 or 4 under standard conditions (room temperature, 22 °C; 12/12 h light/dark cycle) with ad libitum access to food and water and behavioral enrichment. All animals were manipulated and habituated to the tests and to the room for at least 2 weeks. All behavioral tests were done during the light period (i.e., between 7:00 and 19:00). All the procedures were performed in accordance with European committee council Direction, authorization from French Department of Agriculture and from the regional ethic committee.
In all experimentations, to test the animal mechanical sensitivity, we used a calibrated forceps (Bioseb, Chaville, France) previously developed in our laboratory (Figs. 2, 3 and S2, S3)[32]. Briefly, the habituated rat is loosely restrained with a towel masking the eyes in order to limit stress by environmental stimulations. The tips of the forceps are placed at each side of the paw and a graduate force is applied. The pressure producing a withdrawal of the paw, or in some rare cases a vocalization of the animal, corresponded to the nociceptive threshold value. This manipulation was performed three times for each hindpaw and the values were […].
In order to induce a peripheral inflammation, 100 μl of complete Freund adjuvant (CFA; Sigma, St. Louis, MO), was injected in the right hindpaw of the rat. All CFA injections were performed under light isoflurane anesthesia (3%).

Data set [13] concerns mOTR. On the set-up: method as in PMID 30199637. Conditions: mouse receptor, cited from earlier work.
Data set [14] relates to V2 vasopressin receptor (V2R). Also noted: method as in PMID 30199637. The conditions noted are these: cited from earlier work.
Setting [15] is: i.p., D1 after CFA, measured 1 hour after injection.

These results are taken from paper PMC7033278, “A Nonpeptide Oxytocin Receptor Agonist for a Durable Relief of Inflammatory Pain” (Scientific Reports, 2020).

Bounds are passed on as bounds.

T7 sequence (P43681 29-627 limits assumed): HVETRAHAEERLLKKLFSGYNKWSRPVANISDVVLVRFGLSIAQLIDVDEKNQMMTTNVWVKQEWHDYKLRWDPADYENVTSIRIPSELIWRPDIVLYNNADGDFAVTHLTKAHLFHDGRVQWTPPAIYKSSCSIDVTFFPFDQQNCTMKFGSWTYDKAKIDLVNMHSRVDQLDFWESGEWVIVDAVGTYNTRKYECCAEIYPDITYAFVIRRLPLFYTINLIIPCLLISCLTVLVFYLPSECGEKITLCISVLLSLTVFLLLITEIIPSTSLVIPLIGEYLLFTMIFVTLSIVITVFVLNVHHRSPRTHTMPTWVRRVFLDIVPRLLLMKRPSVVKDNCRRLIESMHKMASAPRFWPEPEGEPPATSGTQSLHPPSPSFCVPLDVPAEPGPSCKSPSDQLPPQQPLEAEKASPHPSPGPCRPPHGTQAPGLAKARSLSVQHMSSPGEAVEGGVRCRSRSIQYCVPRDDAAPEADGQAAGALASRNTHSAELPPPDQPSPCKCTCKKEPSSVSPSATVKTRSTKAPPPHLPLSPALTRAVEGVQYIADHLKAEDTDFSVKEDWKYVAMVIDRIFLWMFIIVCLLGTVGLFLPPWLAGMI
T7 sequence (P17787 26-502): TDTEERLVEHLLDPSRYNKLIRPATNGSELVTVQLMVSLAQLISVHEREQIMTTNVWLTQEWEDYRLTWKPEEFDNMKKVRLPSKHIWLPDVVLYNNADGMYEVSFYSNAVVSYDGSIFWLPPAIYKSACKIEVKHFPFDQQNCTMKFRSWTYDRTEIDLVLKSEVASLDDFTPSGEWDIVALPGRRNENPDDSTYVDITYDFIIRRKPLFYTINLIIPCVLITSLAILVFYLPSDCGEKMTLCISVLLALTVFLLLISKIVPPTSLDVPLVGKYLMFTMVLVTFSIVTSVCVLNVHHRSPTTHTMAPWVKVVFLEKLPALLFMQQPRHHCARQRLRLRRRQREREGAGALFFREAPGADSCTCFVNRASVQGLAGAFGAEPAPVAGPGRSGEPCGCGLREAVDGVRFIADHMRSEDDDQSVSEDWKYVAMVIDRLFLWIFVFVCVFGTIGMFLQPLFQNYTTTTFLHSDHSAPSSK
T2 sequence (Q63380 1-617): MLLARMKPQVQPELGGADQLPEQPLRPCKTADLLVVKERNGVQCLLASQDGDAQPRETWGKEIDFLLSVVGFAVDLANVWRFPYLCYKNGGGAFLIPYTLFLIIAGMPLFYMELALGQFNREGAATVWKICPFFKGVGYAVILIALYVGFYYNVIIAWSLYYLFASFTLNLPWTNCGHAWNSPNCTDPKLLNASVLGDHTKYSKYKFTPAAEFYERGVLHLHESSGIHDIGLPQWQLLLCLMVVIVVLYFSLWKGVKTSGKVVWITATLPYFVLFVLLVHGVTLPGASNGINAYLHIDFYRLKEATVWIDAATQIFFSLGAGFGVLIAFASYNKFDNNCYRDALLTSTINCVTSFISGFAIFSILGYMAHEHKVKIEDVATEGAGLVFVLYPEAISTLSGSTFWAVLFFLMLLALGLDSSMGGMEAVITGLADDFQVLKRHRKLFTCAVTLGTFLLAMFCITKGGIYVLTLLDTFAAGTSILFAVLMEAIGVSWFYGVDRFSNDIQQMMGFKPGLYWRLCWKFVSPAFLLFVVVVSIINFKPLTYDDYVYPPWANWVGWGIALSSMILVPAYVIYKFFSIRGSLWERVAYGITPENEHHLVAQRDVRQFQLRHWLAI

As usually defined, the logD is lipophilicity at a set pH, counting ionised and neutral species. Usually half-life stands for how long it takes for the measured level to halve. What is called EC50 is the concentration that produces a half-maximal response. `Cc1cc(C(=O)N2Cc3cnn(C)c3Nc3ccccc32)ccc1CNC(=O)N1CCC[C@H]1C(=S)N(C)C` [LIT-001]: the logD in data set [1] was found to be 2 ± 0.3. Besides, the “degradation in PBS solution” value in data set [2] is “No degradation”. Also, the “agonist or antagonist activity at GPCRs” value in data set [3] is on record as “No significant agonist or antagonist”. In addition, in data set [4], the dopamine uptake blockade entry is listed as “no significant uptake blockade”. Also, the noradrenaline uptake blockade result in [5] is “no significant uptake blockade”. For the same compound, the serotonin uptake blockade entry in [6] is given as “no significant uptake blockade”. Besides, the “GABAA (alpha1/beta2/gamma2) channel blockade” value in data set [7] is recorded as “no significant blockade activity”. Moreover, the “Vav1.5 sodium channel blockade” value in [8] is listed as “no significant blockade activity”. Besides, in data set [9], the “hERG potassium channel blockade” value is listed as “no significant blockade activity”. The “nAChR (alpha4/beta2) channel blockade” value in data set [10] is listed as “no significant blockade activity”. Further, in [11] (1 μM, 37 °C, after 2 hours), the “degradation on human hepatocytes” value is reported as “no degradation was observed”. Besides, the half-life at 1 μM in [11] (human, human hepatocytes (cryopreserved, suspension), from in vitro stability results) is more than 2 h. Moreover, in data set [12] (10 mg/kg i.p.), the “mechanical threshold, NaCl-injected hindpaw (control animals)” value stood at 526 ± 20 g and the “mechanical threshold, hindpaw contralateral to CFA (cCFA)” value was found to be 531 ± 25 g. The “antinociceptive action on contralateral hindpaw” value in data set [12] (0.1-15 mg/kg i.p., mechanical and thermal heat, 1 hour after injection) was “none of the doses tested seem to exert an antinociceptive action”. Moreover, the “relative-to-baseline AUC, mechanical threshold, CFA-injected hindpaw” value in [12] (i.p. LIT-001 10 mg/kg at D1 after CFA) came out at 152 ± 11%. In data set [12] (i.p. LIT-001 10 mg/kg at D1 after CFA, 3 h post i.p.), the “mechanical threshold, CFA-injected hindpaw” value turned out to be 246 ± 22 g. In data set [12] (setting [15]), the “dose at which analgesic effect reaches a plateau, mechanical hypersensitivity” value turned out to be 10 mg/kg and the “dose of first analgesic action, mechanical hypersensitivity” value turned out to be 5 mg/kg. Also, the EC50 in [13] (agonist) was 18 nM. Further, the “Emax (mOTR)” value in data set [13] (efficacy) was 95%. Also, in data set [14], the “affinity for V2R” value is recorded as “low micromolar affinity”.
